Measurements: patent US9782412B2, “Preventive and/or therapeutic agent of immune disease” (TAIHO PHARMACEUTICAL CO., LTD., priority 2015, dated 2017)
Read-outs that look alike come from different tables or passages of the source.

Columns and labels:
[1] = molecular target: T1, phosphorylated BTK protein in Ramos cells (Homo sapiens, UniProt Q06187); experiment: Inhibitory activity against B-cell activation using Ramos cells (BTK phosphorylation); type: cell-based; settings: anti-human IgM stimulation, pY223 Western blotting, read-out: Phosphorylated BTK inhibitory concentration (IC50, (nM))
T1 construct: endogenous in cells; host or cells: Ramos cells
Description: The human B-cell lymphoma-derived cell line, Ramos cells were suspended in RPMI1640 medium, and then the cells were inoculated in a culture plate at a concentration of 2.0×10^6 (cells/well). The cells were cultured in a CO2 incubator (Sanyo Electric Biomedical Co., Ltd.) at 37° C. for 12 hours. […] Then, 10 minutes of stimulation was provided with Goat F(ab′)2 anti-human IgM antibody-UNLB (southern biotech Corp.). Thereafter, the cells were harvested, and 50 μL of (a cell extract (NP-40; Invitrogen, Inc.) containing 1×protease inhibitor (Hoffmann-La Roche AG) and 1×phosphatase cocktail inhibitor (Sigma-Aldrich Co.)) was added to the cell pellets. The cell pellets were left to stand for 10 minutes on ice. The amount of protein in the collected cell extract was quantitatively analyzed by a DC protein assay (Bio-Rad Laboratories, Inc.), and 20 μg of proteins per lane was applied to a Criterion TGX™ (Bio-Rad Laboratories, Inc.). After electrophoresis was performed, Western blotting was performed with Trans-Blot™ Turbo™ (Bio-Rad Laboratories, Inc.). Thereafter, phosphorylated BTK protein and BTK protein were detected with LAS4000 (GE Healthcare, Inc.) with a BTK phosphor (pY223) antibody (EPITOMICS Inc.) and a BTK antibody (Abcam, plc.).

RBL-2H3 cells = experiment: Inhibitory activity against allergic reaction using RBL-2H3 cells (PGD2 production); type: cell-based, rat; settings: anti-DNP IgE / DNP-BSA, read-out: PGD2 production inhibitory concentration (IC50, (nM))
Description: Rat basophilic leukemia cells, RBL-2H3, were suspended in MEM medium containing 10% FBS, and then the cells were inoculated in a culture plate, and cultured in a CO2 incubator (Sanyo Electric Biomedical Co., Ltd.) at 37° C. for 12 hours. After a culture supernatant was removed and the cells were washed, an anti-DNP-mouse IgE (Alpha Diagnostic Inc.) solution was added thereto, and the cells were cultured in the CO2 incubator for 1 hour. After a culture supernatant was removed and the cells were washed, an MEM medium was added thereto.
Further, a DNP-BSA (LSL, Inc.) solution was added thereto and the cells were cultured in the CO2 incubator for 15 minutes. A culture supernatant was collected and reacted, with PGD2-MOX EIA kit (Cayman Chemical Inc.) on the basis of the protocol attached thereto, and absorbance was measured by SUNRISE RAINBOW THERMO (TECAM Inc.).

TNP-IgE mice = experiment: Mouse antigen-induced dermatitis model; type: in vivo; settings: 30 minutes before allergen, 2 hours after antigen
Source text: Type I allergy models accompanied by a skin symptom (a dermatitis model) were produced, with TNP-IgE mice (CLEA Japan, Inc.). The mice are genetically modified BALB/c mice that constantly produce an IgE specific to hapten TNP (trinitrophenol) which is widely used as an allergen (antigen). It is possible to induce an allergic reaction in the mice, only by administering an allergen, without carrying out an immunization. […] An average value of thickening values of both ears was obtained as a value of an individual (provided that a previous value before the allergen application was 0 mm).
Ear swelling control ratio (%) was calculated by the following formula. Ear swelling control ratio (%)=(1−(Average value of ear thickening of compound administered group)/(Average value of ear thickening of vehicle administered group))×100

[2] = Influence on body weight of SD rat by repeated administration; type: in vivo
Description: The rats were grouped as follows, with four animals in each group, by a random classification method such that the average body weights of the respective groups would be almost uniform (Day 1).
The body weight change (BWC) was used as an index indicating the systemic toxicity caused by the compound administration. The BWC was calculated by the following formula. BWC (%)=([(Rat body weight on 14 days after the administration)−(Rat body weight at the time of grouping)]/(Rat body weight at the time of grouping))×100
The relative body weight change ratios in the each compound-administered groups were calculated by the following formula when the BWC in the vehicle-administered group was set as 1, and the results are indicated in Table 25. Relative body weight change ratio (%)=(BWC in the compound-administered group)/BWC in the vehicle-administered group)×100

MRL/lpr mice = experiment: Mouse systemic lupus erythematosus model; type: in vivo; settings: at the doses used in the test
Description: MRL/lpr mice (Japan SLC, Inc.) were used to evaluate drug efficacy in this test, since the mice are widely used as mice models in which symptoms of autoimmune diseases similar to human systemic lupus erythematosus spontaneously express. A grouping was carried out on the basis of swellings of lymph nodes in submaxilla and axilla at 14 weeks old, and once-daily oral administration was continued for 42 days from the day of grouping, with vehicle or Example Compound 13 suspension. Urea nitrogen concentration and anti-dsDNA antibody concentration in peripheral blood at the final administration day were measured.

[3] = system: mouse collagen-induced arthritis model; experiment: Mouse collagen-induced arthritis model (therapeutic effect), Test Example 7; type: in vivo; settings: once-a-day oral for 15 days from sixth day after additional immunization, FIG. 2
Description: (§1) Seven-week-old male/DBA/1 mice (CHARLES RIVER LABORATORIES JAPAN, INC.) were intracutaneously injected in the dorsum with 100 μL/body of an equal amount-mixed solution (emulsion) of a 4 mg/mL bovine type 2 collagen solution (Collagen Research Center) and a complete freund's adjuvant (DIFCO Inc.) (Initial immunization). After 21 days therefrom, the mice were intracutaneously injected in the base of the tail with 100 μL/body of the equal amount-mixed solution (emulsion) of a 4 mg/mL of bovine type 2 collagen solution (Collagen Research Center) and a complete freund's adjuvant (DIFCO Inc.) to carry out an additional immunization. […] Symptoms of arthritis in day 0, day 4, day 7, day 11, and day 14 were scored with the naked eye (0: No change, 1: Swelling of a finger, 2: Swelling of two fingers or more, 3: Swelling of instep, 4: Swelling of all fingers besides swelling extending to wrist/ankle), and a total of four limbs was obtained as a point of an individual (maximum 16 points).

[4] = system: mouse collagen-induced arthritis model; experiment: Mouse collagen-induced arthritis model (therapeutic effect), Test Example 8; type: in vivo; settings: therapeutic administration, FIG. 3
Description: as §1

[5] = Rattus norvegicus, RBL-2H3, RBL-2H3 cells
[6] = repeated administration for two weeks

T1 sequence (Q06187 whole entry): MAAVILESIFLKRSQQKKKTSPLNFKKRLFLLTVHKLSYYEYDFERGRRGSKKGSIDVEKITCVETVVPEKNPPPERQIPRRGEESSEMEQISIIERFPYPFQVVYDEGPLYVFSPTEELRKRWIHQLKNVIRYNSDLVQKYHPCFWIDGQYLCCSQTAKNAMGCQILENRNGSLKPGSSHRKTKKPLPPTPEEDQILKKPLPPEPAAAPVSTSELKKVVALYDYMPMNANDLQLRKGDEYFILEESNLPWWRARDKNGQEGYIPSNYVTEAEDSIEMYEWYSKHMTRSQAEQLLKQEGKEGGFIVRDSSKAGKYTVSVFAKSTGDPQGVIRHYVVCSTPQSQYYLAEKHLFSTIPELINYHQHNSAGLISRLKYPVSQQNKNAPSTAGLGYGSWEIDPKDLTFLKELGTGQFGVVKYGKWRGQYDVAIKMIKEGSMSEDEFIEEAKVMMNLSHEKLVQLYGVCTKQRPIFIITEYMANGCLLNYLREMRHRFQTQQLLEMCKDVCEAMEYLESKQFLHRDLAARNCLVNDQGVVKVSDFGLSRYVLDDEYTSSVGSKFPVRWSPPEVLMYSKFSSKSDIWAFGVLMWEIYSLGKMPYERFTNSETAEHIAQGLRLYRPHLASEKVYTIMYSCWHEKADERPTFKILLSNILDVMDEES

| SMILES | IC50 [1] | IC50 (RBL-2H3 cells; [5]) | Ear swelling control ratio (%) (TNP-IgE mice; 1 mg/kg oral) | Ear swelling control ratio (%) (TNP-IgE mice; 3 mg/kg oral) | Relative body weight change ratio (%) ([2]; 750 mg/kg orally once a day, two weeks) | remarkable decrease in body weight (MRL/lpr mice) | IC50 (RBL-2H3 cells; RBL-2H3 cells) | arthritis score [3] | arthritis score [4] | loose bowel [2, 6] | rat body weight increase compared with the vehicle-administered group [2, 6] |
| --- | --- | --- | --- | --- | --- | --- | --- | --- | --- | --- | --- |
| C=CC(=O)N1CCC[C@@H](n2nc(C(=O)Nc3nc4ccccc4o3)c3c(N)ncnc32)C1 [Example 13, (R)-1-(1-acryloylpiperidin-3-yl)-4-amino-N-(benzo[d]oxazol-2-yl)-1H-pyrazolo[3,4-d]pyrimidine-3-carboxamide] | 0.25 nM | 26 nM | 54% | 79% | 79.1% | not recognized |  |  |  |  |  |
| C=CC(=O)N1CCC[C@@H](n2nc(-c3ccc(Oc4ccccc4)cc3)c3c(N)ncnc32)C1 [Reference compound 1, (R)-1-(3-(4-amino-3-(4-phenoxyphenyl)-1H-pyrazolo[3,4-d]pyrimidin-1-yl)piperidin-1-yl)prop-2-en-1-one, reference compound] |  | ~350 nM |  |  |  |  | 348 nM | delayed the further increase of the increased arthritis score | delayed the further increase of the increased arthritis score | individuals suffering from loose bowel were recognized | very small |
